Legend:
Assay type in all cases: functional
[1] = tested on: RXF 393; assay: Cytotoxicity against human RXF393 cells after 48 hrs by SRB assay; conditions: RXF 393, 48 h
[2] = tested on: HCT-116; assay: Cytotoxicity against human HCT116 cells at 10^-7 M after 48 hrs by SRB assay; conditions: HCT-116, 48 h, read-out: GI
[3] = tested on: SN12C; assay: Cytotoxicity against human SN12C cells at 10^-8 M after 48 hrs by SRB assay; conditions: read-out: GI
[4] = tested on: LOX IMVI; assay: Cytotoxicity against human LOXIMVI cells at 10^-7 M after 48 hrs by SRB assay; conditions: read-out: GI
[5] = tested on: K562; assay: Cytotoxicity against human K562 cells at 10^-8 M after 48 hrs by SRB assay; conditions: K562, 48 h, read-out: GI
[6] = tested on: LOX IMVI; assay: Cytotoxicity against human LOXIMVI cells at 10^-8 M after 48 hrs by SRB assay; conditions: read-out: GI
[7] = tested on: U-251; assay: Cytotoxicity against human U251 cells at 10^-8 M after 48 hrs by SRB assay; conditions: U-251, 48 h, read-out: GI
[8] = tested on: DU-145; assay: Cytotoxicity against human DU145 cells at 10^-8 M after 48 hrs by SRB assay; conditions: DU-145, 48 h, read-out: GI
[9] = tested on: NCI-H522; assay: Cytotoxicity against human NCI-H522 cells at 10^-7 M after 48 hrs by SRB assay; conditions: NCI-H522, 48 h, read-out: GI
[10] = tested on: MCF7; assay: Cytotoxicity against human MCF7 cells at 10^-8 M after 48 hrs by SRB assay; conditions: MCF7, 48 h, read-out: GI
[11] = tested on: NCI-H226; assay: Cytotoxicity against human NCI-H226 cells at 10^-7 M after 48 hrs by SRB assay; conditions: NCI-H226, 48 h, read-out: GI
[12] = tested on: IGROV-1; assay: Cytotoxicity against human IGROV1 cells at 10^-7 M after 48 hrs by SRB assay; conditions: IGROV-1, 48 h, read-out: GI
[13] = tested on: HOP-92; assay: Cytotoxicity against human HOP92 cells at 10^-8 M after 48 hrs by SRB assay; conditions: HOP-92, 48 h, read-out: GI
[14] = tested on: OVCAR-3; assay: Cytotoxicity against human OVCAR3 cells at 10^-7 M after 48 hrs by SRB assay; conditions: OVCAR-3, 48 h, read-out: GI
[15] = Cytotoxicity against human UO31 cells at 10^-5 M after 48 hrs by SRB assay; conditions: UO-31, 48 h, read-out: GI
[16] = Cytotoxicity against human EKVX cells at 10^-7 M after 48 hrs by SRB assay; conditions: read-out: GI
[17] = tested on: A549; assay: Cytotoxicity against human A549 cells at 10^-8 M after 48 hrs by SRB assay; conditions: A549, 48 h, read-out: GI
[18] = tested on: HCC 2998; assay: Cytotoxicity against human HCC2998 cells at 10^-8 M after 48 hrs by SRB assay; conditions: HCC 2998, 48 h, read-out: GI
[19] = tested on: RXF 393; assay: Cytotoxicity against human RXF393 cells at 10^-7 M after 48 hrs by SRB assay; conditions: RXF 393, 48 h, read-out: GI
[20] = tested on: MOLT-4; assay: Cytotoxicity against human MOLT4 cells at 10^-8 M after 48 hrs by SRB assay; conditions: MOLT-4, 48 h, read-out: GI
[21] = tested on: K562; assay: Cytotoxicity against human K562 cells at 10^-6 M after 48 hrs by SRB assay; conditions: K562, 48 h, read-out: GI
[22] = tested on: SK-OV-3; assay: Cytotoxicity against human SKOV3 cells at 10^-7 M after 48 hrs by SRB assay; conditions: SK-OV-3, 48 h, read-out: GI
[23] = tested on: SR; assay: Cytotoxicity against human SR cells at 10^-4 M after 48 hrs by SRB assay; conditions: read-out: GI
[24] = tested on: CCRF-CEM; assay: Cytotoxicity against human CCRF-CEM cells at 10^-7 M after 48 hrs by SRB assay; conditions: read-out: GI
[25] = Cytotoxicity against human OVCAR5 cells at 10^-7 M after 48 hrs by SRB assay; conditions: OVCAR-5, 48 h, read-out: GI
[26] = tested on: SW-620; assay: Cytotoxicity against human SW620 cells at 10^-7 M after 48 hrs by SRB assay; conditions: SW-620, 48 h, read-out: GI
[27] = tested on: K562; assay: Cytotoxicity against human K562 cells at 10^-5 M after 48 hrs by SRB assay; conditions: K562, 48 h, read-out: GI
[28] = Cytotoxicity against human OVCAR5 cells at 10^-8 M after 48 hrs by SRB assay; conditions: OVCAR-5, 48 h, read-out: GI
[29] = tested on: HCT-15; assay: Cytotoxicity against human HCT15 cells at 10^-7 M after 48 hrs by SRB assay; conditions: HCT-15, 48 h, read-out: GI
[30] = tested on: NCI-H322M; assay: Cytotoxicity against human NCI-H322M cells at 10^-7 M after 48 hrs by SRB assay; conditions: read-out: GI
[31] = tested on: MDA-MB-231; assay: Cytotoxicity against human MDA-MB-231 cells at 10^-8 M after 48 hrs by SRB assay; conditions: MDA-MB-231, 48 h, read-out: GI
[32] = tested on: HCT-15; assay: Cytotoxicity against human HCT15 cells at 10^-8 M after 48 hrs by SRB assay; conditions: HCT-15, 48 h, read-out: GI
[33] = tested on: MDA-MB-435; assay: Cytotoxicity against human MDA-MB-435 cells at 10^-7 M after 48 hrs by SRB assay; conditions: MDA-MB-435, 48 h, read-out: GI
[34] = tested on: UACC-62; assay: Cytotoxicity against human UACC62 cells at 10^-7 M after 48 hrs by SRB assay; conditions: UACC-62, 48 h, read-out: GI
[35] = tested on: TK-10; assay: Cytotoxicity against human TK10 cells at 10^-7 M after 48 hrs by SRB assay; conditions: TK-10, 48 h, read-out: GI
[36] = tested on: SK-MEL-28; assay: Cytotoxicity against human SK-MEL-28 cells at 10^-7 M after 48 hrs by SRB assay; conditions: SK-MEL-28, 48 h, read-out: GI
[37] = tested on: KM12; assay: Cytotoxicity against human KM12 cells at 10^-8 M after 48 hrs by SRB assay; conditions: KM12, 48 h, read-out: GI
[38] = tested on: SK-MEL-5; assay: Cytotoxicity against human SK-MEL-5 cells at 10^-8 M after 48 hrs by SRB assay; conditions: SK-MEL-5, 48 h, read-out: GI
[39] = tested on: U-251; assay: Cytotoxicity against human U251 cells at 10^-7 M after 48 hrs by SRB assay; conditions: U-251, 48 h, read-out: GI
[40] = tested on: IGROV-1; assay: Cytotoxicity against human IGROV1 cells at 10^-8 M after 48 hrs by SRB assay; conditions: IGROV-1, 48 h, read-out: GI
[41] = tested on: HOP-92; assay: Cytotoxicity against human HOP92 cells at 10^-7 M after 48 hrs by SRB assay; conditions: HOP-92, 48 h, read-out: GI
[42] = tested on: NCI-H23; assay: Cytotoxicity against human NCI-H23 cells at 10^-7 M after 48 hrs by SRB assay; conditions: NCI-H23, 48 h, read-out: GI
[43] = tested on: OVCAR-8; assay: Cytotoxicity against human OVCAR8 cells at 10^-7 M after 48 hrs by SRB assay; conditions: OVCAR-8, 48 h, read-out: GI
[44] = tested on: 786-0; assay: Cytotoxicity against human 786-0 cells at 10^-7 M after 48 hrs by SRB assay; conditions: 786-0, 48 h, read-out: GI

Work on `CCN(Cc1nc2cc(C(F)(F)F)ccc2nc1-c1ccccc1)c1ccc(OC)c(OC)c1` yielded a GI50 [1] of 309 nM, an inhibition of growth at 0.1 µM [2] of under 40% and an inhibition of growth at 0.01 µM [3] of under 40%. It also gave an inhibition of growth at 0.1 µM [4] of under 40%, an inhibition of growth at 0.01 µM [5] of under 40% and an inhibition of growth at 0.01 µM [6] of under 40%. It also gave an inhibition of growth at 0.01 µM [7] of under 40%, an inhibition of growth at 0.01 µM [8] of under 40% and an inhibition of growth at 0.1 µM [9] of under 40%. For the same molecule, the inhibition of growth at 0.01 µM [10] was under 40%, the inhibition of growth at 0.1 µM [11] was under 40% and the inhibition of growth at 0.1 µM [12] was under 40%. For the same molecule, the inhibition of growth at 0.01 µM [13] was under 40%, the inhibition of growth at 0.1 µM [14] was under 40% and the inhibition of growth at 10 µM [15] was under 40%. For the same molecule, the inhibition of growth at 0.1 µM [16] was under 40%, the inhibition of growth at 0.01 µM [17] was 19% and the inhibition of growth at 0.01 µM [18] was under 40%. For the same molecule, the inhibition of growth at 0.1 µM [19] was 43%, the inhibition of growth at 0.01 µM [20] was under 40% and the inhibition of growth at 1 µM [21] was under 40%. For the same molecule, the inhibition of growth at 0.1 µM [22] was under 40%, the inhibition of growth at 100 µM [23] was 145% and the inhibition of growth at 0.1 µM [24] was under 40%. It also gave an inhibition of growth at 0.1 µM [25] of under 40%, an inhibition of growth at 0.1 µM [26] of under 40% and an inhibition of growth at 10 µM [27] of 62%. It also gave an inhibition of growth at 0.01 µM [28] of under 40%, an inhibition of growth at 0.1 µM [29] of under 40% and an inhibition of growth at 0.1 µM [30] of under 40%. The inhibition of growth at 0.01 µM [31] was under 40%, the inhibition of growth at 0.01 µM [32] was under 40% and the inhibition of growth at 0.1 µM [33] was under 40%. For the same molecule, the inhibition of growth at 0.1 µM [34] was under 40%, the inhibition of growth at 0.1 µM [35] was under 40% and the inhibition of growth at 0.1 µM [36] was under 40%. It also gave an inhibition of growth at 0.01 µM [37] of under 40%, an inhibition of growth at 0.01 µM [38] of under 40% and an inhibition of growth at 0.1 µM [39] of under 40%. For the same molecule, the inhibition of growth at 0.01 µM [40] was under 40%, the inhibition of growth at 0.1 µM [41] was under 40% and the inhibition of growth at 0.1 µM [42] was under 40%. For the same molecule, the inhibition of growth at 0.1 µM [43] was 25% and the inhibition of growth at 0.1 µM [44] was under 40%.

Source: ChEMBL document CHEMBL3120154, “2-[N-Alkyl(R-phenyl)-aminomethyl]-3-phenyl-7-trifluoromethylquinoxalines as anticancer agents inhibitors of folate enzymes” (Eur J Med Chem, 2014)
